Legend:
[1] = NOVARTIS: Cytotoxicity against human hepatocellular carcinoma cell line (Huh7); type: toxicity, cell-based, Huh-7; conditions: Huh7 cells (hepatocellular carcinoma cell line)
[2] = system: Plasmodium falciparum; assay: NOVARTIS: Inhibition of Plasmodium falciparum 3D7 (drug-susceptible) proliferation in erythrocyte-based infection assay; type: functional, organism-based; conditions: Plasmodium falciparum, 3D7
[3] = system: Plasmodium falciparum; assay: NOVARTIS: Inhibition of Plasmodium falciparum W2 (drug-resistant) proliferation in erythrocyte-based infection assay; type: functional, organism-based; conditions: Plasmodium falciparum, W2; read-out: EC50

| Structure (SMILES) | CC50 [1] [nM] | EC50 [2] [nM] | EC50 [3] [nM] |
| --- | --- | --- | --- |
| Nc1ccc(Nc2ccc(N)cc2)cc1 | > 10000 | 319 | 711 |
| CCCCCCN(C(=O)c1ccc(CCCCC)cc1)C(CC)c1nc2ccccc2c(=O)n1-c1ccccc1OC (stereo unspecified) | > 10000 | 1030 | 699 |
| O=C(CC1SC(=Nc2ccccc2)NC1=O)Nc1cc(Cl)ccc1Cl (stereo unspecified) | > 100000 | > 12500 | > 7080 |
| COC(=O)c1ccc(Cn2cc(C=O)c3ccccc32)o1 | > 10000 | > 1250 | > 707 |
| CCCCNC(=O)CCCNC(=O)Cn1cnc2sc3c(c2c1=O)CCCC3 | > 10000 | > 1250 | > 683 |
| CC(C)NC(=O)c1ccc2c(c1)N=C(/C=C/c1ccccc1)N(CC1CCCCC1)C2 | > 10200 | > 1250 | 696 |
| Cc1cc(Oc2ncnc(N(C)CC(=O)OC(C)(C)C)c2[N+](=O)[O-])c2nncn2n1 | > 10000 | > 1630 | > 684 |
| CCOC(=O)N1CCN(S(=O)(=O)c2ccc(C(=O)Nc3sc4c(c3C(N)=O)CCN(CC)C4)cc2)CC1 | 20400 | > 12500 | 1390 |
| CCN1CCN(C(=O)CS(=O)(=O)Cc2nc(-c3cccc(OC)c3)oc2C)CC1 | > 10000 | > 1250 | > 712 |
| CCN(CC)CCCC(C)Nc1nc(/C=C/c2ccccc2OC)nc2cc(Cl)ccc12 (stereo unspecified) | > 10000 | 878 | 688 |
| C=C1[C@@H](C)[C@H]2[C@H](Cc3ccccc3)NC(=O)[C@]23C(OC(C)=O)C=C[C@@](C)(O)C(=O)[C@@H](C)CC=C[C@H]3[C@@H]1O (stereo partly specified) | > 10000 | 1170 | 711 |
| Cc1oc2c(c1C(=O)NCC1CCCO1)C(=O)c1ccccc1C2=O (stereo unspecified) | 6930 | 1180 | 481 |
| CCc1ccc(NC(=O)CSc2nc(C)cc(C)c2C#N)cc1 | > 10000 | > 1250 | > 694 |
| CCN(CC(=O)N1CCc2cc(OC)c(OC)cc2C1C)C(=O)Nc1ccc(Br)cc1 (stereo unspecified) | > 10000 | > 1250 | > 692 |
| Cc1cccc(Nc2ccccc2C(=O)OCC(=O)N2CC(=O)Nc3ccccc32)c1C | 55100 | 4710 | 3820 |
| O=C1N(c2ccccc2)C[C@@H]2C[C@@H](c3ccc4nsnc4c3)N3CCC[C@@]123 | 9250 | 888 | 641 |
| Cc1ccc(NC(=O)c2cc(C(=O)c3cc(Cl)ccc3O)cn(-c3ccc(C)c(C)c3)c2=O)cc1C | > 100000 | 8070 | 6900 |
| COC(=O)c1c(C)oc2ccc(N(C(=O)c3ccc(C)cc3)S(=O)(=O)c3ccccc3)cc12 | > 10000 | > 1680 | 690 |
| CCCS(=O)(=O)N1CCC(CO)(Cc2ccccc2C(F)(F)F)CC1 | > 10000 | 1250 | 692 |
| COc1cc(NC(C)CCCN(Cc2ccccc2OC)C(=O)COCc2ccccc2)c2ncccc2c1 (stereo unspecified) | > 10000 | 1120 | 689 |
| O=C(Nn1c(SCc2cc(=O)n3ccccc3n2)nc2ccsc2c1=O)c1cccc(Br)c1 | > 10000 | > 928 | > 695 |
| COc1cncc(-c2cncc(N3CCN(CCN(C)C)CC3)n2)c1 | > 10000 | 261 | 695 |
| CCCNc1nc(OC(C(F)(F)F)C(F)(F)F)nc(OC(C(F)(F)F)C(F)(F)F)n1 | > 10000 | > 1580 | > 702 |
| Cc1c(Cl)cccc1-n1c(C(C)N(CCc2ccccc2)C(=O)COc2ccccc2)nc2ccccc2c1=O (stereo unspecified) | > 10000 | 614 | 701 |
| CCCCCCN(C(=O)c1cccc(F)c1)C(CC)c1nc2ccccc2c(=O)n1-c1ccccc1OC (stereo unspecified) | > 7320 | 1070 | 509 |
| CN1CCN(c2cc(-c3cccnc3)nc(-c3ccncc3)n2)CC1 | > 9550 | 588 | 656 |

| Structure (SMILES) | CC50 [1] [nM] | EC50 [2] [nM] | EC50 [3] [nM] |
| --- | --- | --- | --- |
| Fc1ccc2nc(Nc3nc(-c4ccccn4)cs3)sc2c1 | 3040 | 1260 | 216 |
| CCCCCCCC(=O)N1CCN(C(=O)C(NC(=O)Nc2ccc(Cl)cc2Cl)C(C)CC)CC1 (stereo unspecified) | > 10000 | > 40.8 | 701 |
| COc1cc(/C=C2/SC(=Nc3ccccc3)NC2=O)ccc1OC(=O)c1ccccc1 | > 10000 | > 933 | 696 |
| O=C(Nc1ccc(-c2cn3ccsc3n2)cc1)c1ccc(S(=O)(=O)N2CCCCCC2)cc1 | 17600 | 634 | 1230 |
| CCOc1ccc(CN(C(=O)COc2ccc(Cl)cc2)C(C)CCCN(CC)CC)cc1 (stereo unspecified) | 18900 | 387 | 1320 |
| CC(C)CNc1nc(NCCCn2ccnc2)ncc1C(=O)NCCc1ccccc1 | > 10000 | 274 | 696 |
| COc1ccc(CCNc2nc(NCCCN3CCCCC3C)ncc2C(=O)NCC(C)C)cc1OC (stereo unspecified) | > 10000 | 1160 | > 706 |
| O=C(NCCCN1CCCC1=O)c1cnc(N2CCN(Cc3ccccc3)CC2)nc1NCCc1ccccc1 | > 10000 | 572 | 699 |
| Cc1ccc(S(=O)(=O)N=C2C=C(Sc3nnc[nH]3)C(=O)c3ccccc32)cc1 | 12800 | 1560 | 901 |
| COc1cc(C(=O)NC(c2ccc3c(c2)OCO3)c2cc(Cl)c3cccnc3c2O)cc(OC)c1OC (stereo unspecified) | > 10000 | 428 | 698 |
| Cc1c(Cl)cccc1N1C(=O)C2C3c4ccccc4C(c4ccccc43)C2C1=O (stereo unspecified) | > 10000 | > 1610 | 686 |
| CN(C)c1ccc(Nc2nc(NCC3CCCO3)c3ccccc3n2)cc1 (stereo unspecified) | 11400 | 852 | 805 |
| Cc1ccc(CN2C3CCCC2CC(NC(=O)Nc2cccc(F)c2)C3)cc1 (stereo unspecified) | > 10000 | 898 | 695 |
| CCCN1CCC(N2C[C@@H](NC3CCN(CCc4ccccc4)CC3)C[C@H]2C(=O)NCCc2ccc3c(c2)OCO3)CC1 | 11100 | 86.8 | 792 |
| CCC(C)(C)c1ccc(OCCOCC[n+]2ccccc2)c(C(C)(C)CC)c1 | 12200 | 960 | 844 |
| CCCCNC(=O)C(c1cccc(OC)c1)N1C(=O)c2cc(OCCCC)ccc2NC(=O)C1CO (stereo unspecified) | > 2370 | 205 | 168 |
| O=C(O)/C=C\C(=O)N(C1CCCCC1)C1CCCCC1 | > 10000 | > 1250 | > 708 |
| Cc1sc2c(c1C)CN(Cc1ccco1)CN2C(=O)c1ccco1 | > 100000 | > 12500 | > 6910 |
| CN=C1S/C(=C\c2ccc(OCC(=O)O)c(OC)c2)C(=O)N1C | > 10000 | > 1250 | > 703 |
| Cc1ccc(NC(=O)C2C3C=CC4(O3)C2C(=O)N(Cc2cccnc2)C4C(=O)NC2CCCCC2)cc1 (stereo unspecified) | > 10000 | > 1640 | 682 |
| COc1ccc(N(C)C(=O)CNC(=O)c2nn(-c3ccc(OC)cc3OC)c(=O)c3ccccc23)cc1 | > 10000 | > 1250 | > 685 |
| O=C(COC(c1ccccc1)c1c(Cl)cncc1Cl)N1CCC(c2ccccn2)C1 (stereo unspecified) | > 100000 | > 12500 | 6960 |
| CC(=O)Nc1cc(C(F)(F)F)cc(C(F)(F)F)c1 | > 10000 | 1310 | 711 |
| Cc1ccc(CN2CCC(O)(c3ccc4oc(C(=O)NCCc5cccc(F)c5)cc4c3)CC2)cc1 | 43500 | 4160 | 3010 |
| Cc1ccc(S(=O)(=O)c2c(COC(=O)c3cccc(C)c3)c(-c3ccccc3)nn2C)cc1 | > 100000 | 8400 | 6970 |
| O=c1[nH]nc(SCc2c(F)cccc2[N+](=O)[O-])c(=O)[nH]1 | > 10000 | > 1250 | > 695 |
